Measured values taken from PubChem BioAssay (NCI).
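1) Cells in 96-well plates. 2) Compound, 48 h, 5 concentrations. 3) Linear interpolation between surrounding doses. 4) Unreached endpoint = highest concentration. The concentration for full growth arrest is given as TGI.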

What was measured:
Assay in all cases: NCI-60 cell line screen, 48 h
DMS 273 small cell lung = system: DMS 273 small cell lung
K-562 leukemia = system: K-562 leukemia
DMS 114 small cell lung = system: DMS 114 small cell lung
NCI-H522 lung = system: NCI-H522 lung
SF-295 CNS = system: SF-295 CNS
MOLT-4 leukemia = system: MOLT-4 leukemia
TK-10 renal = system: TK-10 renal
SF-539 CNS = system: SF-539 CNS
ACHN renal = system: ACHN renal
MALME-3M melanoma = system: MALME-3M melanoma
M19-MEL melanoma = system: M19-MEL melanoma
786-0 renal = system: 786-0 renal

SMILES	TGI (DMS 273 small cell lung) [µM]	TGI (K-562 leukemia) [µM]	TGI (DMS 114 small cell lung) [µM]	TGI (NCI-H522 lung) [µM]	TGI (SF-295 CNS) [µM]	TGI (MOLT-4 leukemia) [µM]	TGI (TK-10 renal) [µM]	TGI (SF-539 CNS) [µM]	TGI (ACHN renal) [µM]	TGI (MALME-3M melanoma) [µM]	TGI (M19-MEL melanoma) [µM]	TGI (786-0 renal) [µM]
O=c1oc2ccccc2n1P(=O)(Oc1ccc(Cl)cc1)n1c(=O)oc2ccccc21	> 100	> 100	> 100	> 100	> 100	> 100	> 100	> 100	> 100	> 100	> 100	
CC(=O)O[C@@H]1CC[C@@]2(C)C(=O)C34C[C@@]5(C)C([C@@H](C)CCCC(C)C)CCC5(C)[C@](O)(O3)C(=O)[C@H]4C2C1(C)C (some centres not stated)	27.2	29.9	33.6	25.5	29.8	28.8	30.5	39.4	27	33.2	27.3	25.6
C=C1CN2CCc3c([nH]c4ccccc34)C2CC1CC(=O)N(C)C (configuration not stated)	> 309	> 309	> 309	> 309	> 309	> 309	> 309	> 309	> 309	> 309	> 309	> 309
C[C@]12CCc3nn(-c4ccccc4)nc3C1CC[C@@H]1C2CC[C@]2(C)C(=O)CCC12 (some centres not stated)	> 100	> 100	> 100	> 100	> 100	> 100	> 100	> 100	> 100	> 100	> 100	> 100
CC(N)C(C)c1ccccc1 (configuration not stated)	> 100	> 100	> 100	> 100	> 100	> 100	> 100	> 100	> 100	> 100		> 100
CC(C)C(CCOS(=O)(=O)O)CCC(C)[C@H]1[C@@H](O)C(O)C2[C@]3(O)C[C@@H](O)C4(O)C[C@@H](O)CC[C@]4(C)C3CC[C@@]21C (some centres not stated)	> 100	> 100	> 100	> 100	> 100		> 100	> 100	> 100	> 100	> 100	> 100
C/C(CCN(C)C)=N\OC(=O)c1ccccc1	> 100	> 100	> 100	> 100	> 100	> 100	> 100	> 100	> 100	> 100	> 100	> 100
Cn1c(=O)n(C2(C)CSC2)c2ccccc21	> 100	> 100	> 100	> 100	> 100	> 100	> 100	> 100	> 100		> 100	> 100
CC1=CC[C@@H](C(C)(C)O)C[C@@H]1O		> 5000	> 5000	> 5000	> 5000	> 5000	> 5000	> 5000	> 5000	> 5000	> 5000	> 5000
COc1ccc(-c2cc(=O)c3cc(O)ccc3o2)c(OC)c1OC		> 100	> 100	64.6	69.2		> 100	> 100	93.6	> 100	> 100	> 100
COc1nc(NC2OC(CO)C(O)C(O)C2O)c(N)c(=O)[nH]1 (configuration not stated)	> 100	> 100	> 100	> 100	> 100	> 100		> 100		> 100	> 100	
CC#CC#C/C=C1\C=CC2(OC=CC2O)O1 (configuration not stated)	> 23.3	> 23.3	> 22.5	> 20.3	> 23.3	> 23.3	> 23.3	> 23.3	> 23.3	> 23.3	> 23.3	> 23.3
Cc1cccc(N=N/C(=N\NC(=O)c2cc(Cl)ccc2O)c2ccc(N(CCC#N)CCC#N)cc2C)c1		67.3		72.6	> 100	39.9	76.9	> 100	> 100	94.1		> 100
CCCC(C(=O)OC)C1N=C(NC#N)N(Cc2ccccc2)C1=O (configuration not stated)	> 100	> 100	> 100	> 100	> 100	> 100	> 100		> 100	> 100	> 100	> 100
COC(=O)C1=CCC2c3[nH]c4ccccc4c3CCN2C1 (configuration not stated)	> 354	> 354	> 354	> 354	> 354	> 354	> 354	> 354	> 354	> 354	> 354	> 354
CC(C)(C)CI	34.8	58.4	48.3	45.2	33.9	76.9	> 100	> 100	58.5	46.6	53.9	

SMILES	TGI (DMS 273 small cell lung) [µM]	TGI (K-562 leukemia) [µM]	TGI (DMS 114 small cell lung) [µM]	TGI (NCI-H522 lung) [µM]	TGI (SF-295 CNS) [µM]	TGI (MOLT-4 leukemia) [µM]	TGI (TK-10 renal) [µM]	TGI (SF-539 CNS) [µM]	TGI (ACHN renal) [µM]	TGI (MALME-3M melanoma) [µM]	TGI (M19-MEL melanoma) [µM]	TGI (786-0 renal) [µM]
CC(C)CC1N=C(OCc2ccccc2)OC1=O (configuration not stated)		> 100		> 100	> 100	> 100	> 100	> 100	> 100	> 100		> 100
[O-][N+]1=C2CCC/C(=N/O)C2(O)C2CCCCC21N1CCOCC1 (configuration not stated)		> 100		> 100	> 100	> 100	> 100	> 100	> 100	> 100		> 100
CC(C)c1c(O[Si](C(C)C)(C(C)C)C(C)C)cc2c(c1O)CC[C@H]1C(C)(C)CCC[C@]21C		> 100		> 100	> 100	> 100	> 100	> 100	> 100	> 100		> 100
C=C1CC[C@@H]2[C@](C)(COC(=O)CCC(=O)O)CCC[C@@]2(C)[C@@H]1CCC1=CC(=O)OC1		> 100		> 100	> 100	> 100	> 100	> 100	> 100	> 100		> 100
CON[N+]([O-])=NC(C)C		> 100		> 100	> 100	> 100	> 100	> 100	> 100	> 100		> 100
CN1CCc2c(sc3ncn(Nc4ccc(F)cc4)c(=N)c23)C1		> 100		> 100	> 100	> 100	> 100	> 100	> 100	> 100		> 100
O=C1c2ccccc2C(=O)N1NC1=NCCN1		> 100		> 100	> 100	> 100	> 100	> 100	> 100	> 100		> 100
O=C(CCCn1ccnc1[N+](=O)[O-])NCCn1cnc([N+](=O)[O-])n1		> 100		> 100	> 100	> 100	> 100	> 100	> 100	> 100		> 100
CC1CC(=O)Nc2ccccc2N1C(=O)C1CC1 (configuration not stated)		> 100		> 100	> 100	> 100	> 100	> 100	> 100	> 100		> 100
CCN(CC)CCSc1c(C(C)=O)c(=O)n(-c2ccccc2)c(=S)n1-c1ccccc1		> 43.7		5.54	> 100	19.3	17.2	6.01	10.1	20.7		3.38
CN(/N=C/C=N/N(C)C1=NCCN1)C1=NCCN1		> 100		> 100	> 100	> 100	> 100	> 100	> 100	> 100		> 100
CC1(C)[C@H]2Cc3cc4nc5ccccn5c4cc3[C@@H]1C2		> 100		21.9	30.8	54.8	33	33.6	34.2	25.7		32.7
CN(C)NC1=NS(=O)(=O)c2cc3c(=O)n(C)[nH]c3cc2S1		> 10		> 10	> 10	> 10	> 10	> 10	> 10	> 10		> 10
NC(CSCSCC(N)C(=O)O)C(=O)O (configuration not stated)	> 225	> 225	> 225	> 225	> 225	> 225		> 225		> 225	> 225	
COc1cc(OC)c(/C=N\Nc2nc3ccccc3c(=O)n2-c2ccccc2)c(OC)c1		> 100		> 100	65.1	77.1	> 66	39.3	38.8	79.3		37.6
